In experiment [1] the target is T1, purified NO synthase from pig cerebellum (Sus scrofa, UniProt F1RKF2).
T1 construct: purified NO synthase from pig cerebellum; from tissue; host or cells: pig cerebellum
Nature of the experiment: Inhibition of the activity of purified nitric oxide synthase (NOS), 3H-L-citrulline formation, enzyme from pig cerebellum. It counts as biochemical. The following applies: 0.25 h, substance 100 μM, antagonistic test in the presence of 2 μM tetrahydrobiopterin, 37° C., 15 minutes, read-out: Citrulline formation (% of the control).
Experimental: In this assay for purified NO synthase (NOS) the coproduct L-citrulline obtained during NO formation is determined quantitatively. This is carried out by the use of ^3 H-radiolabeled L-arginine as a substrate of the enzyme reaction, which is reacted to give ^3 H-L-citrulline and NO. After the enzyme incubation is complete, resulting L-citrulline is removed from unused L-arginine by means of ion-exchange chromatography of the reaction mixture; the ^3 H-activity determined by liquid scintillation measurement then corresponds to the amount of L-citrulline.
The coproduct L-citrulline obtained during the formation of NO by purified NOS is determined quantitatively in this activity assay. The substrate of the enzyme reaction employed is ^3 H-radiolabeled L-arginine, which is reacted to give ^3 H-L-citrulline and NO. After the enzyme incubation is complete, resulting L-citrulline is removed from unused L-arginine by means of ion-exchange chromatography of the reaction mixture; the ^3 H activity measured by liquid scintillation then corresponds to the amount of L-citrulline, which is a direct measure of the activity of NOS.
The base medium for carrying out the enzyme reaction is TE buffer (triethanolamine, EDTA, pH 7.0). The final volume of each incubation is 100 μl. The reaction mixture is obtained by mixing the following 6 components on ice:
"REA mix" (pH 7.0), which contains triethanolamine, calcium chloride, magnesium chloride, EDTA, L-arginine, calmodulin and flavine adenine dinucleotide (FAD);
2. freshly prepared stock solution of β-nicotinamide adenine dinucleotide phosphate, reduced form (NADPH); […]
Triethanolamine 50 mM, EDTA 0.5 mM, CaCl2 226 μM, MgCl2 477 μM, L-arginine 50 μM, calmodulin 0.5 μM, FAD 5 μM, NADPH 1 mM, BH4 (if added) 2 μM, substance to be tested 100 μM. […] 9 ml of scintillator solution are added to the 3 ml aqueous measuring solution and the homogeneous mixture is measured for 1 minute per sample in a Tricarb 2500 TR (Packard) liquid scintillation counter. […]

The subject of the next experiment is NO synthase. The conditions noted are these: literature reports (Kwon et al.; Giovanelli et al.; Hevel and Marletta); cited from earlier work.
The subject of experiment [2] is purified NO synthase from pig liver. Nature of the experiment: Inhibition of the activity of purified nitric oxide synthase (NOS), 3H-L-citrulline formation, enzyme from pig liver. It counts as biochemical. The following applies: substance 100 μM, antagonistic test in the presence of 2 μM tetrahydrobiopterin, 37° C., 15 minutes. The text has this:
The inhibition of NO release by the compounds of the formula I can be determined by an activity assay based on the studies of Bredt and Snyder and also Schmidt et al. (see D. S. Bredt and S. S. Snyder, Isolation of nitric oxide synthase, a calmodulin-requiring enzyme, Proc. Natl. Acad. Sci. USA 87 (1990), 682; H. H. H. W. Schmidt et al., Purification of a soluble isoform of guanylyl cyclase-activating factor synthase, Proc. Natl. Acad. Sci. USA 88 (1991), 365). In this assay for purified NO synthase (NOS) the coproduct L-citrulline obtained during NO formation is determined quantitatively. […] After the enzyme incubation is complete, resulting L-citrulline is removed from unused L-arginine by means of ion-exchange chromatography of the reaction mixture; the ^3 H-activity determined by liquid scintillation measurement then corresponds to the amount of L-citrulline. […]
The coproduct L-citrulline obtained during the formation of NO by purified NOS is determined quantitatively in this activity assay. […] After the enzyme incubation is complete, resulting L-citrulline is removed from unused L-arginine by means of ion-exchange chromatography of the reaction mixture; the ^3 H activity measured by liquid scintillation then corresponds to the amount of L-citrulline, which is a direct measure of the activity of NOS. […]

For the molecule `Nc1nc2ncc(COC(=O)C(Cc3ccccc3)NC(=O)OCc3ccccc3)nc2c(=O)[nH]1` (stereo not shown) [Example 23], the remaining activity at 100 µM in experiment [1] amounted to 2.5%.

For the molecule `Nc1nc2nccnc2c(=O)[nH]1` [pterin], in the experiment with NO synthase, the “Effect on NO production / NO synthase activity” value was “no significant effects”.

On to `Nc1nc2ncc(CNc3ccc(C(=O)N[C@@H](CCC(=O)O)C(=O)O)cc3)nc2c(=O)[nH]1` [folic acid], for which the “Effect on NO production / NO synthase activity” value in the experiment with NO synthase is recorded as “no significant effects”.

Regarding `CC(NC(=O)OCc1ccccc1)C(=O)OCc1cnc2nc(N)[nH]c(=O)c2n1` (stereo not shown) [Example 21], the remaining activity at 100 µM in experiment [1] came out at 60.8%.

With `N=c1[nH]c(N)nc2ncc(CN)nc12` [Example 76], the “Citrulline formation (% of the control)” value in experiment [2] is on record as 22.4 % of the control.

For the molecule `CC1CNc2nc(N)[nH]c(=O)c2N1` (stereo not shown) [6-methyl-5,6,7,8-tetrahydropterin], the “Effect on NO production / NO synthase activity” value with NO synthase is “increase in NO synthase activity”.

With `C[C@H](O)[C@H](O)c1cnc2nc(N)[nH]c(=O)c2n1` [biopterin], the “Effect on NO production / NO synthase activity” value in the experiment with NO synthase is given as “no significant effects”.

For the molecule `CSCc1cnc2nc(N)[nH]c(=O)c2n1` [Example 37], the remaining activity at 100 µM in experiment [1] came out at 22.9%.

Take `C[C@H](O)[C@H](O)[C@H]1CNc2nc(N)[nH]c(=O)c2N1` [tetrahydrobiopterin]: the “Effect on NO production / NO synthase activity” value in the experiment on NO synthase is “stimulates NO production”.

With `C[C@H](O)[C@H](O)C1=Nc2c(nc(N)[nH]c2=O)NC1` [7,8-dihydrobiopterin], in the experiment with NO synthase, the “Effect on NO production / NO synthase activity” value is listed as “Stimulation of NO production”.
